The source of these data is US20240226342A1, “REACTIVE OXYGEN SPECIES IMAGING AGENTS” (Washington University, priority 2022, published 2024).

The nature of data set [1]: Dynamic PET/MR brain imaging of normal rhesus monkey. The data set is classed as in vivo. How it is done: FIG. 12A-FIG. 12B is an exemplary embodiment showing dynamic MR/PET brain imaging of normal rhesus monkey (10 Kg) following intravenous injection of 18F-SLN-128 (5.8 mCi) over 2 h in accordance with the present disclosure. FIG. 12A includes images showing summation of PET data over 10 min and co-registered with T2-weighted MR image of the monkey for anatomical reference. FIG. 12B is a line graph showing SUVs as a time-activity curve for the tracer influx and clearance from important regions of the brain.
Of note, these NHP brain SUV values are 2.5-fold higher than reported for ^18F-ROStrace thus likely to translate into higher contrast brain images compared with ^18F-ROStrace (SUV=1.35). […] Tissue time-activity curves (TACs) also show fast initial uptake with maximum projection of activity at 7-10 min followed by clearance of ^18F-SLN-128 at later time-points from amygdala, caudate, cerebellum, cortex (frontal, insular, occipital and temporal), cerebellum, hippocampus, putamen, thalamus, and white matter of rhesus monkey brain.

The subject of data set [2] is LPS induced systemic inflammation of mouse brain. Briefly: Dynamic PET/CT imaging in LPS-treated mice. The data set is classed as in vivo. As to conditions: for brain uptake in LPS-treated mice relative to saline-treated mice: 24 h post LPS, frames 45-60 min. How it is done: FIG. 9A-FIG. 9D is an exemplary embodiment showing preclinical PET/CT imaging in accordance with the present disclosure. C57BI6 mice (n=4) were injected with either LPS or saline intraperitoneally. 24 h post treatments, 18F-SLN-128 (100 μCi) was injected via tail-vein into mice. Dynamic PET images were acquired from 0 min to 60 min post tail-vein injection of the radiotracer. PET/CT images as shown are a summation frames from 45-60 min. FIG. 9A is an image showing saline treated mice (control). FIG. 9B is an image showing LPS treated mice (5 μg/g, 24 h post treatment); FIG. 9C is a bar graph showing quantified uptake: % ID/cm3. FIG. 9D is a bar graph showing post imaging biodistribution: Brain Uptake (% ID/g). mean±SD, where **p<0.01 and […] is determined by an unpaired student ttest) in brains of BI6 mice (n=4) 24 h post either LPS- or saline treatments.
Systemic administration of LPS induces oxidative stress and resulting a release of inflammatory cytokines, sustained microglial activation, and neuronal cell loss in brain areas, such as the hippocampus, cerebral cortex, substantia nigra, ventral tegmental area, and thalamus, alters the levels of neurotransmitters in adult animals, and cerebellum. Thus LPS-induced inflammation provides a useful rodent model for preclinical imaging of ^18F-SLN-128. […] Finally, the brain uptake (see e.g., FIG. 9C) derived from PET imaging also correlated with 60 min post imaging quantified uptake (see e.g., FIG. 9D) indicating potential of the radiotracer for imaging endotoxin mediated brain inflammation in vivo. Mitochondrial dysfunction is a major event in the pathogenesis of Huntington disease (HD). It has also been reported that systemic 3-NP administration leads to oxidized proteins in the striatum, as well as a massive loss of striatal neurons. To evaluate potential of ^18F-SLN-128 PET imaging for 3NP-induced ROS-mediated neurodegeneration in mice, PET/CT imaging was performed.

As to `COc1ccc2c(c1)N(C)C(c1ccc(O)c(OCC[18F])c1)c1cccn1-2` (stereo not drawn) [18F-SLN-128], in data set [1] (later time points), the “clearance from brain regions” value is on record as “excreted from critical regions at later-time points”. Also, the “nonspecific retention in normal monkey brain” value in data set [1] (over 2 h) is given as “Insignificant nonspecific retention”. In addition, in data set [1] (rhesus monkey), the “time of maximum SUV” value lay in the range of 7 to 10 min. Moreover, the “NHP brain SUV relative to 18F-ROStrace” value in data set [1] (rhesus monkey, in vivo) was determined as 2.5 fold. In addition, the “maximum Standard Uptake Value (SUV) in brain” value in data set [1] (rhesus monkey, intravenous injection) was found to be 3.5. In addition, in data set [1] (samples at an interval of 3 min over 2 hours), the “metabolites in venous blood (radio-HPLC, γ-counter)” value is listed as “did not show any metabolite”. The “brain uptake in LPS-treated mice relative to saline-treated mice” value amounted to 2.5 fold in data set [2] and 2 fold in data set [2] (listed as 18F-SLN128). The “retention in brains of LPS treated mice” value in data set [2] (compared with saline-treated counterparts) is listed as “stable retention in brains of LPS treated mice”.
